# Like-named read-outs stand apart in the source and are kept apart here.
# Assays:
# [1] = tested on: Agrobacterium biosensor cells; test: Minimal inhibitory concentration (MIC); format: cell-based, Agrobacterium tumefaciens; conditions: 10^5 CFU/ml, 36 h at 30°C
# Protocol: Aside from the effect of QSI on QS regulation, the toxicity of these compounds was tested on bacterial cells by measuring two parameters: the minimal inhibitory concentration (MIC) and minimal bactericidal concentration (MBC). MIC, which is the lowest concentration of QSI (µg/ml) inhibiting any visible culture after 36 h of incubation at 30°C, was estimated by culturing 10^5 CFU/ml of the Agrobacterium biosensor cells in the presence of different concentrations of the QSI. MBC, which is the lowest concentration of QSI (µg/ml) that results in a 99.9% reduction of the initial bacterial population (10^5 CFU/ml) after 36 h of incubation at 30°C in the presence of different concentrations of QSI, was estimated by plating 100 µL of the Agrobacterium cultures on agar LBm plates. After an incubation of 48 h at 30°C, CFU were counted and the MBC values were calculated.
# [2] = tested on: QS-regulated genes lasI, lasR, lasB, rhlI, rhlR, rhlA in P. aeruginosa PAO1; test: QS-regulated gene expression, lacZ transcriptional fusions in PAO1; format: cell-based, Pseudomonas aeruginosa; conditions: for expression of six QS-regulated genes (lasI, lasR, lasB, rhlI, rhlR, rhlA): QSI at 0.5 mg/ml, 18 hours at 37°C, β-galactosidase; for inhibition of expression of the regulators lasR and rhlR (rank) / impact on rhlI expression relative to naringenin, estradiol and estrone: QSIs at 0.5 mg/ml; for impact on rhlI expression relative to naringenin, estradiol and estrone: naringenin at 1 mg/ml
# Protocol: Figure 6 QSIs modulated QS-regulated genes in P. aeruginosa. The β-galactosidase (b-Gal) activity in Miller unit (MU) of the transcriptional fusions lasI-lacZ (A), lasR-lacZ (B), lasB-lacZ (C), rhlI-lacZ (D), rhlR-lacZ (E), rhlA-lacZ (F), and aecA-lacZ(G) were measured in the presence of estradiol, estrone, estriol, hordenine at 0.5 mg/ml, and naringenin at 1 mg/ml as a positive control and DMSO as a negative control. The statistical significance of each test (n = 5 and three biological replicates) was evaluated by Student's t test (i.e. each test was compared with the DMSO condition). Asterisks indicate statistically different data (p value of ≤0.01).
# QS gene transcription in P. aeruginosa PAO1 was monitored using PAO1 strains carrying various gene promoters fused to a lacZ reporter gene, as described in Vandeputte et al., 2010 and Table 1. PAO1 reporter strains were prepared according to Vandeputte et al.. Briefly, 18-hours-old liquid cultures (50 µl) were diluted in order to obtain a starting OD600 nm comprised between 0.02 and 0.03 in fresh LB medium supplemented with 50 mM MOPS pH 7.0 (1 ml), carbenicillin (300 µg/ml) and 10 µl of the QSIs to be tested (OD were measured using a SpectraMax M2 device from Molecular Devices). Test and control QSIs were diluted in 100% DMSO (resulting after addition to the growth medium in a 1% final concentration of DMSO). Cultures were incubated for 18 hours at 37°C with agitation. After incubation, cell densities were assessed spectrophotometrically (OD600 nm) and β-galactosidase assays were performed using the substrate o-nitrophenyl-β-D-galactopyranoside as described previously, [29]. Promoterless-lacZ fusions were used as controls. AHLs were quantified as described in Vandeputte et al.. All tests were performed in quintuplicates and three biological repetitions. The statistical significance of each test was evaluated by conducting Student's t tests and two-way ANOVA combined with the Tukey post-analysis test using the GraphPad Prism software and p values≤0.01 were considered significant.
# RhlR = molecular target: T1, RhlR (Pseudomonas aeruginosa, UniProt P54292); test: E. coli bioindicator expressing RhlR (pAL101, rhlI::luxCDABE luminescence); format: cell-based; conditions: C4-HSL 10 µM; QSIs at 0.1 mg/ml, naringenin and naringin at 0.5 mg/ml
# T1 construct: expressed in transfected cells; host or cells: Escherichia coli JLD271 carrying pAL101 (pSB401-derivative, rhlR+ rhlI::luxCDABE)
# T1 sequence (P54292 whole entry): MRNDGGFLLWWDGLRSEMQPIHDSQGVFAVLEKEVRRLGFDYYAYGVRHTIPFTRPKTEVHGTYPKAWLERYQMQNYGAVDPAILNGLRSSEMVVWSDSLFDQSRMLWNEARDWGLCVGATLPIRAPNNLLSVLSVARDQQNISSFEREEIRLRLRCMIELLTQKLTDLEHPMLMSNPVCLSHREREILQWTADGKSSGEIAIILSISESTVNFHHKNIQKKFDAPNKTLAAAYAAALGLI
# Protocol: We determined whether the AHL-binding transcriptional factors LasR and RhlR were impaired in their capacity to activate expression of the QS-regulated genes in the presence of various QSIs. This was achieved by using two E. coli bioindicator strains expressing either LasR or RhlR proteins and harboring an appropriate reporter lux operon for measuring their transcriptional activity in the presence of OC12-HSL at 100 µM and C4-HSL at 10 µM, respectively. Adding C4-HSL to the pAL101-bioindicator or OC12-HSL to the pAL105-bioindicator induced the expression of the reporter lux operon and the consequent production of luminescence. In contrast, only background levels of luminescence were detected in control strains harboring the plasmids pAL102 or pAL106, which lacks the rhlR or lasR gene, respectively.
# Figure 7 QSIs modulated activity of the AHL-sensors in P. aeruginosa. Luminescence of the reporting operon lux, expressed in relative light units (RLU/OD600), was measured in E. coli bioindicator strains harboring the LasR (A) and RhlR (B) AHL-sensing systems of P. aeruginosa in the presence of […]. The QSIs estradiol, estrone, estriol and hordenine were added at 0.1 mg/ml, while naringenin and naringin, added at 0.5 mg/ml, were used as QSI-reference and non-QSI reference, respectively. Each test (n = 6) was compared with the DMSO-condition using Student's t test. Asterisks indicate statistically different data (p value of ≤0.01).
# Escherichia coli JLD271 biosensor strains harboring LasR- and RhlR-based plasmids pAL105 and pAL101 and control plasmids pAL106 (LasR^-) and pAL102 (RhlR^−) (Table 1) were prepared according to Vandeputte et al.. Briefly, these strains were grown in LB medium supplemented with tetracycline (10 µg/ml) and chloramphenicol (25 µg/ml) for 24 h. Then 50-µl portions of the cultures were subcultured in 1 ml of LB medium (the starting OD600 ranged between 0.02 and 0.025 corresponding to 5.10^6 CFU) supplemented with 10 µl of DMSO (1% [vol/vol] final), 10 µl of naringenin or naringin dissolved in DMSO (2 mM, final concentration), or 10 µl of the molecule to be tested. To induce the expression of the lux operon, 0, 1, 10 or […] of C4-HSL was added to pAL101 and pAL102, while OC12-HSL was added to pAL105 and pAL106. After incubation for 2 h at 37°C with agitation (175 rpm), 200 µl of culture was transferred to 96-well OptiPlate-96 F plates from Perkin-Elmer, and the luminescence of each sample was measured by using a TopCount NXT device from Perkin-Elmer. The LasR(pAL106) and RhlR(pAL102) biosensors were used for background subtraction, and the OD600 values were measured to account for the differences in cell density. All experiments were performed in six replicates. The statistical significance of each test was evaluated by conducting Student's t tests using the GraphPad Prism software, and p values ≤0.05 were considered significant. Naringenin (4′,5,7-trihydroxyflavanone), naringin (4′,5,7-trihydroxyflavanone 7-rhamnoglucoside), the AHLs OC12-HSL and C4-HSL were purchased from Sigma-Aldrich and dissolved freshly in 100% DMSO before use. Tested QSIs were dissolved in 100% DMSO before use.
Compound,MIC [1],"expression of six QS-regulated genes (lasI, lasR, lasB, rhlI, rhlR, rhlA) [2]",effect on RhlR functionality (lux luminescence) (RhlR),"MIC ([1]; Agrobacterium, read-out: MIC)",inhibition of expression of the regulators lasR and rhlR (rank) [2],"impact on rhlI expression relative to naringenin, estradiol and estrone [2]"
"3-Hydroxy-13-methyl-6,7,8,9,11,12,13,14,15,17-decahydro-cyclopenta[a] phenanthren-16-one [Compound 729, reference compound]",>100 µg/mL,decreased,significant impact,,,
"CN(C)CCc1ccc(O)cc1 [Compound 3499, hordenine]",,decreased,significant impact,> 100 µg/mL,the most,lower impact
"C[C@]12CC[C@@H]3c4ccc(O)cc4CC[C@H]3[C@@H]1C[C@@H](O)[C@@H]2O [Estriol, estriol]",,decreased,significant impact,> 100 µg/mL,the least,lower impact

# Reference: article PMC3871529, “At a Supra-Physiological Concentration, Human Sexual Hormones Act as Quorum-Sensing Inhibitors” (PLoS ONE, 2013)
